# Test results from US6852698B2, “Free radical scavengers or promoters thereof as therapeutic adjuvants in preterm parturition” (priority 2000, dated 2005).
# What was measured:
# [1] = system: glutathione; assay: Total glutathione in maternal and fetal livers; type: in vivo, mice; conditions: 16 h
# Procedure: Measurement of total glutathione: Glutathione content was measured in maternal and fetal livers of animals treated with and without NAC and sacrificed at 3, 6 and 16 hours after LPS injection. Fetal livers were pooled from all fetuses of each pregnant animal, snap frozen in liquid nitrogen and stored at −80° C. until assayed. Briefly, the frozen tissue was rapidly homogenized in 7.5% trichloroacetic acid in a ratio of 1:20 (w/v). The homogenate was centrifuged at 3000 g for 10 min at 4° C. Total glutathione content was assayed in the supernatant by a colorimetric reaction that involves the formation of a chromophoric thione (Bioxytech GSH-420, Oxis Health Products, Portland, Oreg.) and was expressed in μg/ml by using oxidized glutathione standards and further normalized by the total protein content of the pellet. The protein pellet was solubilized in 0.1 N NaOH and its protein content was estimated using a BCA protein assay kit (Pierce, Rockford, Ill.).
# [2] = system: MMP-2; assay: Gelatin zymography of medium from incubated human term amniochorionic membranes, MMP-2; type: cell-based
# Source text: Tissues: Full thickness amniochorionic membranes were collected from seven patients without complications of pregnancy undergoing elective C-section at term. The fragment collected was selected from a region at least 10 cm away from the placenta. Immediately after collection, membranes were placed in minimum essential medium (MEM) (Gibco, Grand Island, N.Y.) on ice. Tissue samples were then cut under sterile conditions with a scalpel blade into smaller pieces of similar size. Over the next 30 min., the pieces of membranes were rinsed thoroughly with several changes of MEM and then sterile phosphate buffered saline (PBS) pH=7.8. Preweighed amounts of tissue (approximately 500 mg) consisting of several pieces selected at random were placed in a CO2 incubator with a humidified chamber at 37° C. for 24 hours. Incubations were carried out in a total volume of 2 ml buffer. Both wet weight and dry weight of tissue pieces were determined after incubation and after drying overnight at 60° C., respectively. After incubation the culture-conditioned medium was collected, briefly spun at 1000 g to remove cellular debris and loaded directly on gelatin gels. The concentration of protein in the aliquots of medium was measured with a BCA kit (Pierce, Rockford, Ill.). […]
# SDS-Substrate gel electrophoresis (zymography): For detection of MMPs, equal volumes (15 μl) of conditioned medium (containing the activated MMPs) were mixed in a 1:3 ratio with substrate gel buffer (10% SDS, 4% sucrose, 0.25 M Tris-HCl, pH=6.8 and 0.1% bromphenol blue) and loaded directly onto gels without boiling (Raj agopalan et al., 1996 with modifications). […] In order to quantify the gelatinolytic activity of MMPs, the wet gel was scanned on a GS-670 Image Densitometer (Bio-Rad), and analyzed using Multianalyst v1.1 volume quantification system software (Bio-Rad). […]
# [3] = system: C57B16 inbred mice; assay: Timing of birth (latency) in LPS-injected pregnant mice; type: in vivo
# Procedure: Animals and treatments: C57B16 inbred mice were housed together with CD57/BL6 males under regular light and dark cycles, with stable ambient temperature conditions. The next morning the females were examined for the presence of a vaginal plug. The day of detection of the vaginal plug was designated as day 0. On day 16 of pregnancy the pregnant mice were injected i.p. with either 10 μg lipopolysaccharide (LPS: from E Coli 0111.:B4 from Calbiochem) or saline (controls). […] NAC was diluted in phosphate buffered saline (PBS). After 12 hours the animals were inspected hourly for signs of parturition (posture, bleeding). The time between LPS injection and delivery of the first pup was defined as latency. Fetal viability at birth was recorded after tactile stimulation of the pup. To separate between the effect of prematurity on the fetus and the in utero consequence of endotoxin administration on the fetus, animals were sacrificed at 3, 6 and 16 hours after endotoxin injection in a separate set of experiments.
# [4] = system: C57B16 inbred mice; assay: Fetal outcome (viability) in LPS-injected pregnant mice; type: in vivo; conditions: for Fetuses dead in utero: 16 h after LPS
# Procedure: Animals and treatments: C57B16 inbred mice were housed together with CD57/BL6 males under regular light and dark cycles, with stable ambient temperature conditions. The next morning the females were examined for the presence of a vaginal plug. The day of detection of the vaginal plug was designated as day 0. On day 16 of pregnancy the pregnant mice were injected i.p. with either 10 μg lipopolysaccharide (LPS: from E Coli 0111.:B4 from Calbiochem) or saline (controls). N-Acetylcysteine 1 g/kg (NAC: which is a membrane permeable GSH precursor, Sigma, St. Louis Mo. and direct antioxidant) was given p.o. by gavage 30 min before and 2 h after the LPS injection. NAC was diluted in phosphate buffered saline (PBS). After 12 hours the animals were inspected hourly for signs of parturition (posture, bleeding). The time between LPS injection and delivery of the first pup was defined as latency. Fetal viability at birth was recorded after tactile stimulation of the pup. To separate between the effect of prematurity on the fetus and the in utero consequence of endotoxin administration on the fetus, animals were sacrificed at 3, 6 and 16 hours after endotoxin injection in a separate set of experiments.
# [5] = system: MMP-9; assay: Gelatin zymography of medium from incubated human term amniochorionic membranes, MMP-9; type: cell-based; conditions: for Effect on the increase in MMP-9 induced by X/XO: X 2 mM + XO 20 mU/ml, SOD 500 U/ml
# Source text: Tissues: Full thickness amniochorionic membranes were collected from seven patients without complications of pregnancy undergoing elective C-section at term. The fragment collected was selected from a region at least 10 cm away from the placenta. Immediately after collection, membranes were placed in minimum essential medium (MEM) (Gibco, Grand Island, N.Y.) on ice. Tissue samples were then cut under sterile conditions with a scalpel blade into smaller pieces of similar size. Over the next 30 min., the pieces of membranes were rinsed thoroughly with several changes of MEM and then sterile phosphate buffered saline (PBS) pH=7.8. Preweighed amounts of tissue (approximately 500 mg) consisting of several pieces selected at random were placed in a CO2 incubator with a humidified chamber at 37° C. for 24 hours. Incubations were carried out in a total volume of 2 ml buffer. Both wet weight and dry weight of tissue pieces were determined after incubation and after drying overnight at 60° C., respectively. After incubation the culture-conditioned medium was collected, briefly spun at 1000 g to remove cellular debris and loaded directly on gelatin gels. The concentration of protein in the aliquots of medium was measured with a BCA kit (Pierce, Rockford, Ill.).
# Drugs and incubations: Incubations were performed in the presence of xanthine (X: 2 mM), xanthine oxidase (XO: 20 mU/ml), the combination xanthine+xanthine oxidase (X/XO), superoxide dismutase (SOD: 500 U/ml), X/XO/SOD, nitro-L-arginine (a nonspecific nitric oxide synthase inhibitor, LNA: 1 mM), X/XO/LNA, S-nitroso-N-acetyl penicillamine (a nitric oxide donor, SNAP 10 mM), X/XO/SNAP, N-acetyl cysteine (NAC: 0.1, 1, 10 mM), lipopolysaccharide (LPS 100 ng/ml). All chemicals were purchased from Sigma (St. Louis, Mo.) unless otherwise specified.
# SDS-Substrate gel electrophoresis (zymography): For detection of MMPs, equal volumes (15 μl) of conditioned medium (containing the activated MMPs) were mixed in a 1:3 ratio with substrate gel buffer (10% SDS, 4% sucrose, 0.25 M Tris-HCl, pH=6.8 and 0.1% bromphenol blue) and loaded directly onto gels without boiling (Raj agopalan et al., 1996 with modifications). Briefly, type I gelatin was added to a standard Laemmli 10% acrylamide polymerization mixture at a final concentration of 1 mg/ml. Following electrophoresis, the proteins in the gel were renatured by exchanging SDS with Triton X-100 and the gels were incubated overnight at 37° C. in 50 mM TRIS-HCl, pH=7.4 containing 10 mM CaCl2 and 0.05% Brij 35. At the end of the incubation, the gels were stained with 0.5% Coomassie Blue R-250 (Bio-Rad, Hercules, Calif.) in 40% methanol/10% acetic acid, then destained in 40% methanol/10% acetic acid for 1 h. Proteins having gelatinolytic activity appeared as discrete translucent areas of lytic activity on an otherwise blue gel. When the gels are incubated in parallel with 0.01 M EDTA, disappearance of lytic bands confirms the metal dependence of MMP activity. Migration of proteins was compared with that of prestained broad molecular weight markers (Bio-Rad). Further, 10 ng/lane of zymography standards (recombinant MMP-2/MMP-9, Calbiochem, La Jolla, Calif.) were run along with the samples. In order to quantify the gelatinolytic activity of MMPs, the wet gel was scanned on a GS-670 Image Densitometer (Bio-Rad), and analyzed using Multianalyst v1.1 volume quantification system software (Bio-Rad). […]
# [6] = system: superoxide anion in fetal membranes; assay: Nitroblue tetrazolium (formazan) assay of superoxide generation in fetal membranes; type: cell-based, human
# Procedure: Intracellular superoxide anion generation: Pieces of fetal membranes were immersed in Krebs bicarbonate buffer (118 mM NaCl, 4.7 mM KCl, 1.18 MM MgSO4, 1.18 mM KH2PO4, 11.1 mM D-glucose, 0.016 mM EDTA, 2.2 mM CaCl2, 15.8 mM NaHCO3, pH=7.35−7.4) containing 1 mg/ml nitroblue tetrazolium (NBT), for 180 min. in the CO2 incubator with humidified chamber at 37° C. The soluble yellow form of NBT is reducedby O2.^− generated within the tissue to form an insoluble precipitate of blue-purple formazan. After incubation, the fetal membranes were washed in saline, photographed, placed in 4% formaldehyde and kept overnight in a refrigerator. Specimens were then embedded in OCT Tissue Tek embedding medium (Fisher Scientific, Pittsburgh, Pa.) and frozen in liquid nitrogen. The frozen specimens were cut by cryostat into 20 μm sections, mounted onto electrostatically treated-glass slides (Fisherbrand Superfrost Plus, Fisher Scientific) and counterstained with Neutral Red. They were immediately investigated by light microscopy using a Nikon Eclipse E1000M microscope connected to an MTI DC330 3CCD Color Camera (Dage MTI Inc., Michigan City, Mich.).
# [7] = system: extracellular O2−; assay: Placental extracellular superoxide production (SOD-inhibitable NBT reduction); type: in vivo, mice
# Procedure: Placental extracellular superoxide production: Placental extracellular superoxide production was determined by the SOD-inhibitable reduction of nitroblue tetrazolium. Briefly, after sacrifice duplicate placentas where incubated each in 1 ml 1 mg/ml nitroblue tetrazolium (NBT) diluted in PBS, for 1 h. in a CO2 incubator with humidified chamber at 37° C. The soluble yellow form of NBT is reduced by O2.^− generated within the tissue to form an insoluble precipitate of blue-purple formazan that discolorates the tissue. Extracellular O2.^− produces a discoloration of the incubation medium. The incubation was performed in the presence and absence of SOD. The difference in absorbance at 655 nm normalized by the dry weight of placenta between the average of the duplicates in the presence and absence of SOD represents the SOD-inhibitable O2.^− production and was expressed in normalized arbitrary units.
# [8] = design: species or system mice; conditions: mouse, in vivo
# Procedure: We have experimentally investigated the transplacental passage of spin trapping compounds. Methodology: C57B16 mice were injected ip with 4 mmols/kg POBN [a-(4-pyridyl-1-oxide-N-t-butylnitrone)] on day 16 of pregnancy. Animals were sacrificed at different times after injection, 2-5 fetuses collected and lipids extracted as described by Brackett et al., 1989. Electron paramagnetic spectra were obtained in a Varian EPR spectrometer equipped with an X-band microwave bridge with center field set at 3376 Gauss and modulation frequency at 100 Hz. The extracts were examined before and after in vitro addition of a hydroxyl radical generating Fenton mixture (Fe^2++H2O2).
# [9] = system: extracellular O2−; assay: Cytochrome c reduction assay of the X/XO reaction; type: biochemical; conditions: SOD 500 U/ml
# Procedure: Extracellular superoxide anion generation: O2^− was generated enzymatically from the reaction between 2 mM xanthine (X) and 20 mU/ml xanthine oxidase (XO), as described by McCord and Fridovich (1969). Though these amounts are larger than those routinely used for in vitro generation of O2^− in cell-free experiments, we have based our decision on the presence of both XO and SOD in fetal membranes (Telfer et al., 1997) and on our assumption that the expression of these enzymes will change the efficiency of the X/XO reaction. As a result we monitored the efficiency of the X/XO reaction in our experimental setting by a cytochrome c assay, both in tissue-free conditions as well as in the presence of the tissue (Babior et al., 1973).
# [10] = 10 mM NAC, 24 h incubation of human term fetal membranes
# [11] = NAC 10 mM, human fetal membranes
# [12] = SNAP 10 mM, LNA 1 mM, data not shown
# [13] = addition of SOD, 3 hour incubation with NBT
compound,measurement,setting,value
"CC(=O)N[C@@H](CS)C(=O)O [NAC, N-acetylcysteine]",Maternal liver GSH,"[1]; LPS-treated pregnant mice, NAC p.o.",prevented the decrease
same,Fetal liver GSH content,"[1]; fetuses of LPS-injected mice, maternal NAC p.o.",not different from either CRL or LPS
same,"MMP-2 activity, % of the levels from the CRL tissue",[2]; [10],20%
same,Effect on MMP-2 in the presence and absence of LPS,[2]; [11],dramatically inhibited
same,Latency compared statistically with CRL and LPS groups,[3]; LPS plus NAC,no longer different from either CRL or LPS animals
same,Latency period (LPS injection until delivery),"[3]; LPS plus two doses of 1 mg/kg NAC per os, 1 h before and 2 h after LPS, n=12",35.13 ± 6.41 h
same,Kaplan-Maier survival analysis of cumulative birth rates,[3]; LPS-injected mice with or without NAC,did not reveal a significant NAC effect
same,Time of delivery after saline injection,"[3]; NAC alone, no LPS, n=7",67.71 ± 5.8 h
same,Fetuses dead in utero,"[4]; group that received LPS plus NAC, p=0.006 vs LPS group",37%
same,Proportion of pups born alive,[4]; mice given NAC before and after LPS,statistically significant increase
same,"MMP-9 activity, % of the levels from the CRL tissue",[5]; [10],20%
same,Effect on MMP-9 in the presence and absence of LPS,[5]; [11],dramatically inhibited
same,Effect on the increase in MMP-9 induced by X/XO,[5]; human fetal membranes,prevented the increase in MMP-9
same,Formazan formation in the incubated tissue (macroscopic),"[6]; NAC 10 mM, 3 hour incubation with NBT",completely abolished
same,Formazan deposits by light microscopy (intracellular O2− formation),[6]; tissues exposed to NAC,no formazan deposits
same,Effect on the LPS-induced increase in placental extracellular O2− production,"[7]; LPS plus NAC, 3 hours",not seen
"CC(C)(C)[N+]([O-])=Cc1cc[n+]([O-])cc1 [POBN, a-(4-pyridyl-1-oxide-N-t-butylnitrone)]","Additional difference in magnitude of the EPR signal, fetus 6 h vs maternal liver 1 h or fetus 1 h",[8],10 fold
"CC(=O)N[C@H](C(=O)O)C(C)(C)SN=O [SNAP, S-nitroso-N-acetyl penicillamine]",Effect on fetal membrane MMP activity (MMP-2),[2]; [12],nor the NO donor SNAP had any significant effect
same,Effect on fetal membrane MMP activity (MMP-9),[5]; [12],nor the NO donor SNAP had any significant effect
lipopolysaccharide [LPS],Fetuses dead in utero,[4]; LPS group without NAC,63%
same,Vaginal stillbirth rate,[4]; LPS group without NAC,100%
same,Increase in extracellular O2− production in placentas,[7]; LPS-injected animals at 3 hours,2.7 fold
superoxide dismutase [SOD],Change in absorbance at 550 nm (cytochrome c reduction by X/XO),[9],completely inhibited
same,Effect on the increase in MMP-9 induced by X/XO,[5]; human fetal membranes,reversed
same,Extracellular formazan formation induced by X/XO,[6]; [13],inhibited completely
same,Intracellular formazan formation induced by X/XO,[6]; [13],only partially
